From ChEMBL document CHEMBL1150897, “Antioxidant flavonoid glycosides from Daphniphyllum calycinum” (J Nat Prod, 1998)
≈ marks a conversion by molar mass, not a printed value.

Tested on: Radical scavenging activity
Test: Antioxidant activity assessed as DPPH free radical scavenging activity
Type: functional

| Compound | IC50 |
| --- | --- |
| C[C@@H]1O[C@@H](OC[C@H]2O[C@@H](Oc3c(-c4ccc(O)cc4)oc4cc(O)c(O)c(O)c4c3=O)[C@H](O)[C@@H](O)[C@@H]2O)[C@H](O)[C@H](O)[C@H]1O | 43.2 µg/mL (≈ 70.8 µM) |
| C[C@H]1O[C@H](O[C@H]2[C@H](Oc3c(-c4ccc(O)cc4)oc4cc(O)cc(O)c4c3=O)O[C@H](CO)[C@@H](O)[C@@H]2O)[C@@H](O)[C@@H](O)[C@@H]1O | 79.6 µg/mL (≈ 134 µM) |
| O=C1O[C@H]([C@@H](O)CO)C(O)=C1O [ASCORBIC ACID] | 22 µg/mL (≈ 125 µM) |
| COc1ccc(O)c(C(C)(C)C)c1.COc1ccc(O)cc1C(C)(C)C [BUTYLATED HYDROXYANISOLE] | 21 µg/mL |
| O=C(O)/C=C/c1ccc(O)c(O)c1 [CAFFEIC ACID] | 12 µg/mL (≈ 66.6 µM) |
| O=C(O)c1cc(O)c(O)c(O)c1 [GALLIC ACID] | 5 µg/mL (≈ 29.4 µM) |
| CC(Cc1ccc(O)c(O)c1)C(C)Cc1ccc(O)c(O)c1 (configuration not stated) [NORDIHYDROGUAIARETIC ACID] | 12 µg/mL (≈ 39.7 µM) |
